# Data taken from publication PMC10795023, “Structural Optimization and Biological Evaluation of Isoxazolo[5,4-d]pyrimidines as Selective Toll-Like Receptor 7 Agonists” (ACS Omega, 2024).
# Read-outs that look alike come from different tables or passages of the source.
# Target: T1, hTLR7 (Homo sapiens, UniProt Q9NYK1)
# T1 construct: host or cells: HEK293
# T1 sequence (Q9NYK1 27-1049): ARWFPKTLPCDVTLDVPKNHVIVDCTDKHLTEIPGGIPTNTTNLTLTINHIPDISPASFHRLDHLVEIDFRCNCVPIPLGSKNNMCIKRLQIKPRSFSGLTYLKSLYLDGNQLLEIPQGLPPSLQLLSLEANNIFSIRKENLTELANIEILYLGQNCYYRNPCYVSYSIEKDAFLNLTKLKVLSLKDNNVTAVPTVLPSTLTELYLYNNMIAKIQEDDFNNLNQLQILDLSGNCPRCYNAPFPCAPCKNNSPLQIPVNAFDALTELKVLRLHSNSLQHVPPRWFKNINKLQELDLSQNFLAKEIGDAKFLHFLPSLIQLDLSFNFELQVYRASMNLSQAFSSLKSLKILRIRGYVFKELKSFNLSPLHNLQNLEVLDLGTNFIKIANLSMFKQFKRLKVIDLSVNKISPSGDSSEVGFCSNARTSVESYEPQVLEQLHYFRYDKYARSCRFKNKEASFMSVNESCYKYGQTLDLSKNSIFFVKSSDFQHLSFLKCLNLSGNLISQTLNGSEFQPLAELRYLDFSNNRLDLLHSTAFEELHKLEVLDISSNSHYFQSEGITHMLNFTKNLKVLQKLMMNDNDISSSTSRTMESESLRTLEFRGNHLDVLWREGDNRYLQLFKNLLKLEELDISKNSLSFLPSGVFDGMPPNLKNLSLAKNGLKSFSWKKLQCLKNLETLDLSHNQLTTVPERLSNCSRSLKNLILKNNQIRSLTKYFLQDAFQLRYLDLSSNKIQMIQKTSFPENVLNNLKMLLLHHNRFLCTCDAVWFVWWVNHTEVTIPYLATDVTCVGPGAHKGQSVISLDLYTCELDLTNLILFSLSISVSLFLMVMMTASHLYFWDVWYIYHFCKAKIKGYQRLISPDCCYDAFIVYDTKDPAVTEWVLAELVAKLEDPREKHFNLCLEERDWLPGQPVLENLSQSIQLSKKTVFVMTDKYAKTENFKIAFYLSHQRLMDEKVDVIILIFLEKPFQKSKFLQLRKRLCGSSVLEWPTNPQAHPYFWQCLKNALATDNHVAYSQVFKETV
# Assay: TLR7 agonist activity, HEK293 hTLR7 SEAP reporter assay
# Format: cell-based
# Conditions: for plateau / maximum response (efficacy) / loss of activity/potency on TLR7 relative to parent compound 21a: HEK293-hTLR7 SEAP; for plateau / maximum response (efficacy): less than twofold increase in maximum response; for EC50: HEK293 cotransfected with hTLR7 and inducible SEAP reporter gene, 24 h treatment, average ± SD of three independent replicates, n.a. = not active; for loss of activity/potency on TLR7 relative to parent compound 21a: EC50 compared with 21a
# Description: TLR7 agonist activities were determined using the HEK293 cell line, which was cotransfected with the hTLR7 gene and an inducible SEAP reporter gene (InvivoGen, San Diego, California, USA) as described previously.[34] Briefly, cells were seeded in 96-well plates (3 × 10^4 cells/well) and incubated at 5% CO2 and 37 °C. After 24 h, the cells were treated with the solutions of the compounds in DMSO. Imiquimod was used as a PC. The cells were incubated again for 24 h under the same conditions. The activity of SEAP in the supernatant of the cells was measured using the QUANTI-Blue reagent (InvivoGen, San Diego, California, USA), according to the manufacturer's protocol. EC50 values were determined using GraphPad Prism 9.2.0. software (San Diego, California, USA) using the nonlinear regression curve fit and four-parameter logistic equation. All experiments were performed in three independent biological replicates. Values are given as averages from the independent measurements with standard deviations calculated.
SMILES,plateau / maximum response (efficacy),EC50,EC50 (read-out: EC50) [µM],loss of activity/potency on TLR7 relative to parent compound 21a
"CC1CN(c2nc(C(F)(F)F)nc3onc(-c4ccc(F)cc4)c23)CCO1 (stereo not shown) [Compound 21g, 3-(4-Fluorophenyl)-4-(2-methylmorpholino)-6-(trifluoromethyl)isoxazolo[5,4-d]pyrimidine]",low plateau response,retained the potency,11 ± 0.1,
"CC1CCCCN1c1nc(C(F)(F)F)nc2onc(-c3ccc(F)cc3)c12 (stereo not shown) [Compound 21e, 3-(4-Fluorophenyl)-4-(2-methylpiperidin-1-yl)-6-(trifluoromethyl)isoxazolo[5,4-d]pyrimidine]",low plateau response,,63.3 ± 9.8,Approximately 10 fold
"CC1CCCN(c2nc(C(F)(F)F)nc3onc(-c4ccc(C(F)(F)F)cc4)c23)C1 (stereo not shown) [Compound 16a, 4-(3-Methylpiperidin-1-yl)-6-(trifluoromethyl)-3-(4-(trifluoromethyl)phenyl)isoxazolo[5,4-d]pyrimidine]",,,> 150,
"CC1(C)CCCN(c2nc(C(F)(F)F)nc3onc(-c4ccc(F)cc4)c23)C1 [Compound 21o, 4-(3,3-Dimethylpiperidin-1-yl)-3-(4-fluorophenyl)-6-(trifluoromethyl)isoxazolo[5,4-d]pyrimidine]",,slightly less potent,24.5 ± 1.6,
"CC(C)C1CCCN(c2nc(C(F)(F)F)nc3onc(-c4ccc(F)cc4)c23)C1 (stereo not shown) [Compound 21q, 3-(4-Fluorophenyl)-4-(3-isopropylpiperidin-1-yl)-6-(trifluoromethyl)isoxazolo[5,4-d]pyrimidine]",,,81.1 ± 7,Approximately 10 fold
"COC1CCN(c2nc(C(F)(F)F)nc3onc(-c4ccc(F)cc4)c23)C1 (stereo not shown) [Compound 21t, 3-(4-Fluorophenyl)-4-(3-methoxypyrrolidin-1-yl)-6-(trifluoromethyl)isoxazolo[5,4-d]pyrimidine]",,,> 150,
"CC1CCCN(c2nc(C(F)(F)F)nc3onc(-c4cccc([N+](=O)[O-])c4)c23)C1 (stereo not shown) [Compound 19a, 4-(3-Methylpiperidin-1-yl)-3-(3-nitrophenyl)-6-(trifluoromethyl)isoxazolo[5,4-d]pyrimidine]",,did not offer any change in activity,,
"CC(C)CNc1nc(C(F)(F)F)nc2onc(-c3ccccc3)c12 [Compound 14b, N-Isobutyl-3-phenyl-6-(trifluoromethyl)isoxazolo[5,4-d]pyrimidin-4-amine]",,inactive,,
"CC1CN(c2nc(C(F)(F)F)nc3onc(-c4ccc(F)cc4)c23)CCN1 (stereo not shown) [Compound 21h, 3-(4-Fluorophenyl)-4-(3-methylpiperazin-1-yl)-6-(trifluoromethyl)isoxazolo[5,4-d]pyrimidine]",,lacked activity,,
"CN1CCN(c2nc(C(F)(F)F)nc3onc(-c4ccc(F)cc4)c23)CC1 [Compound 21j, 3-(4-Fluorophenyl)-4-(4-methylpiperazin-1-yl)-6-(trifluoromethyl)isoxazolo[5,4-d]pyrimidine]",,lacked activity,> 150,
"Fc1ccc(-c2noc3nc(C(F)(F)F)nc(NC4CC4)c23)cc1 [Compound 21c, N-Cyclopropyl-3-(4-fluorophenyl)-6-(trifluoromethyl)isoxazolo[5,4-d]pyrimidin-4-amine]",,inactive,,
"CC(C)CNc1nc(C(F)(F)F)nc2onc(-c3ccc(F)cc3)c12 [Compound 21b, 3-(4-Fluorophenyl)-N-isobutyl-6-(trifluoromethyl)isoxazolo[5,4-d]pyrimidin-4-amine]",,no activity observed,,
"CC1CCN(c2nc(C(F)(F)F)nc3onc(-c4ccc(F)cc4)c23)CC1 [Compound 21f, 3-(4-Fluorophenyl)-4-(4-methylpiperidin-1-yl)-6-(trifluoromethyl)isoxazolo[5,4-d]pyrimidine]",low plateau response,,68 ± 8.1,Approximately 10 fold
"CC(C)CNc1nc(C(F)(F)F)nc2onc(-c3ccc(Cl)cc3)c12 [Compound 15b, 3-(4-Chlorophenyl)-N-isobutyl-6-(trifluoromethyl)isoxazolo[5,4-d]pyrimidin-4-amine]",,agonist activity was lost,,
"CC1CCCN(c2nc(C(F)(F)F)nc3onc(-c4ccc(F)c(Br)c4)c23)C1 (stereo not shown) [Compound 22, 3-(3-Bromo-4-fluorophenyl)-4-(3-methylpiperidin-1-yl)-6-(trifluoromethyl)isoxazolo[5,4-d]pyrimidine]",,,16.4 ± 0.1,
"Fc1ccc(-c2noc3nc(C(F)(F)F)nc(N4CCCC5(CC5)C4)c23)cc1 [Compound 21p, 3-(4-Fluorophenyl)-4-(5-azaspiro[2.5]octan-5-yl)-6-(trifluoromethyl)isoxazolo[5,4-d]pyrimidine]",,slightly less potent,17.5 ± 3,
"CC1CCCN(c2nc(C(F)(F)F)nc3onc(-c4ccccc4)c23)C1 (stereo not shown) [Compound 14a, 4-(3-Methylpiperidin-1-yl)-3-phenyl-6-(trifluoromethyl)isoxazolo[5,4-d]pyrimidine]",,inactive,,
"CC1CCCN(c2nc(C(F)(F)F)nc3onc(Cc4ccc(F)c(F)c4)c23)C1 (stereo not shown) [Compound 23a, 3-(3,4-Difluorobenzyl)-4-(3-methylpiperidin-1-yl)-6-(trifluoromethyl)isoxazolo[5,4-d]pyrimidine]",,,19.9 ± 3.1,
"CC(C)CNc1nc(C(F)(F)F)nc2onc(-c3cccc([N+](=O)[O-])c3)c12 [Compound 19b, N-Isobutyl-3-(3-nitrophenyl)-6-(trifluoromethyl)isoxazolo[5,4-d]pyrimidin-4-amine]",,did not offer any change in activity,,
"CC1CCCN(c2nc(C(F)(F)F)nc3onc(-c4ccc(Cl)cc4)c23)C1 (stereo not shown) [Compound 15a, 3-(4-Chlorophenyl)-4-(3-methylpiperidin-1-yl)-6-(trifluoromethyl)isoxazolo[5,4-d]pyrimidine]",,,21.4 ± 2.8,
"Fc1ccc(-c2noc3nc(C(F)(F)F)nc(N4CCCC4)c23)cc1 [Compound 21v, 3-(4-Fluorophenyl)-4-(pyrrolidin-1-yl)-6-(trifluoromethyl)isoxazolo[5,4-d]pyrimidine]",,,> 150,
"CC1CCCC(c2nc(C(F)(F)F)nc3onc(-c4ccc(F)cc4)c23)C1 (stereo not shown) [Compound 21y, 3-(4-Fluorophenyl)-4-(3-methylcyclohexyl)-6-(trifluoromethyl)isoxazolo[5,4-d]pyrimidine]",low plateau response,retained its activity,15.9 ± 0.9,
